From US20250326772A1, “MRGPRX2 ANTAGONISTS, PHARMACEUTICAL COMPOSITION INCLUDING MRGPRX2 ANTAGONIST, AND METHOD OF TREATING MRGPRX2-MEDIATED DISEASE OR DISORDER” (KYORIN PHARMACEUTICAL CO., LTD., priority 2024, published 2025)

molecular target: T1, MRGPRX2 (Homo sapiens, UniProt Q96LB1); assay: MRGPRX2 reporter cell assay (NFAT-RE luciferase, Substance P stimulation); assay type: cell-based; conditions: U2OS cells stably transfected with MRGPRX2 and NFAT-RE luciferase reporter; Substance P at EC80
T1 sequence (Q96LB1 1-330): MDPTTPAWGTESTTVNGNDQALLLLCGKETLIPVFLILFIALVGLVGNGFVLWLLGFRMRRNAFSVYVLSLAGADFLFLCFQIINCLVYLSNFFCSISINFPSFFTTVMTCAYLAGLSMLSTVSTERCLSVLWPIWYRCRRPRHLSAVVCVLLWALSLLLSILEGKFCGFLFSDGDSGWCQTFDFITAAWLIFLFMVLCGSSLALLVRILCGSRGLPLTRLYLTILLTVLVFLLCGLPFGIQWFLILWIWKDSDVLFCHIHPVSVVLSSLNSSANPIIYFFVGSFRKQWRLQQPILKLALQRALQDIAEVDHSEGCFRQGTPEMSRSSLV
Procedure, shortened: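 U2OS cells stably expressing MRGPRX2 and an NFAT-RE luc2P reporter, pre-incubated 30 min at 37° C with compound (0.5% DMSO), then stimulated with Substance P at EC80 for 6 h. Luminescence after ONE-GLO; percent inhibition fitted by four-parameter logistic to IC50.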

| Compound | IC50 |
| --- | --- |
| Cn1cc(-c2c(-c3c(C(F)F)nn4c3OC[C@@H](NC(=O)C3CC3)C4)[nH]c3ncccc23)c(OC(F)F)n1 [EX. 559] | 3 nM |
| COC(=O)N[C@@H]1COc2c(-c3[nH]c4ncccc4c3-c3cn(C)nc3OC(F)F)c(C(F)F)nn2C1 [EX. 571] | 1.2 nM |
| CCc1nn2c(c1-c1[nH]c3ncccc3c1-c1cn(C)nc1OC(F)F)OC[C@@H](NC(=O)OC)C2 [EX. 572] | 3.6 nM |

same assay, conditions: U2OS cells stably transfected with MRGPRX2 and NFAT-RE luciferase reporter; Substance P at EC80; class symbols

| Compound | IC50 |
| --- | --- |
| CC(=O)NCCO[C@@H]1COc2c(-c3[nH]c4ncccc4c3-c3cn(C)nc3OC(F)F)c(C(F)F)nn2C1 [EX. 537] | < 10 nM |
| CN(C)CCO[C@@H]1COc2c(-c3[nH]c4ncccc4c3-c3cn(C)nc3OC(F)F)c(C(F)F)nn2C1 [EX. 538] | < 10 nM |
| CCNC(=O)O[C@@H]1COc2c(-c3[nH]c4ncccc4c3-c3cn(C)nc3OC(F)F)c(C(F)F)nn2C1 [EX. 539] | < 10 nM |
| CNC(=O)O[C@@H]1COc2c(-c3[nH]c4ncccc4c3-c3cn(C)nc3OC(F)F)c(C(F)F)nn2C1 [EX. 540] | < 10 nM |
| CO[C@@H]1COc2c(-c3[nH]c4ncccc4c3-c3cn(C)nc3OC(F)F)c(C)nn2C1 [EX. 541] | < 10 nM |
| Cc1nn2c(c1-c1[nH]c3ncccc3c1-c1cn(C)nc1OC(F)F)OC[C@@H](OCCO)C2 [EX. 542] | < 10 nM |
| Cn1cc(-c2c(-c3c(C(F)F)nn4c3OC[C@@H](N)C4)[nH]c3ncccc23)c(OC(F)F)n1 [EX. 543] | < 10 nM |
| CC(=O)N[C@@H]1COc2c(-c3[nH]c4ncccc4c3-c3cn(C)nc3OC(F)F)c(C(F)F)nn2C1 [EX. 544] | < 10 nM |
| CCc1nn2c(c1-c1[nH]c3ncccc3c1-c1cn(C)nc1OC(F)F)OC[C@@H](NS(C)(=O)=O)C2 [EX. 545] | < 10 nM |
| COC(=O)N[C@@H]1COc2c(-c3[nH]c4ncccc4c3-c3cn(C)nc3OC(F)F)c(C)nn2C1 [EX. 546] | < 10 nM |
| Cc1nn2c(c1-c1[nH]c3ncccc3c1-c1cn(C)nc1OC(F)F)OC[C@@H](NS(C)(=O)=O)C2 [EX. 547] | < 10 nM |
| Cn1cc(-c2c(-c3c(C(F)F)nn4c3OC[C@@H](NC(=O)[C@@H]3C[C@@H]3F)C4)[nH]c3ncccc23)c(OC(F)F)n1 [EX. 549] | < 10 nM |
| Cn1cc(-c2c(-c3c(C(F)F)nn4c3OC[C@@H](NC(=O)[C@H]3C[C@@H]3F)C4)[nH]c3ncccc23)c(OC(F)F)n1 [EX. 550] | < 10 nM |
| Cn1cc(-c2c(-c3c(C(F)F)nn4c3OC[C@@H](NC(=O)[C@@H]3C[C@H]3F)C4)[nH]c3ncccc23)c(OC(F)F)n1 [EX. 551] | < 10 nM |
| Cn1cc(-c2c(-c3c(C(F)F)nn4c3OC[C@@H](NC(=O)[C@@H]3CC3(F)F)C4)[nH]c3ncccc23)c(OC(F)F)n1 [EX. 552] | < 10 nM |
| Cn1cc(-c2c(-c3c(C(F)F)nn4c3OC[C@@H](NC(=O)[C@H]3CC3(F)F)C4)[nH]c3ncccc23)c(OC(F)F)n1 [EX. 553] | < 10 nM |
| Cn1cc(-c2c(-c3c(C(F)F)nn4c3OC[C@@H](NC(=O)C3CC(F)(F)C3)C4)[nH]c3ncccc23)c(OC(F)F)n1 [EX. 554] | < 10 nM |
| C[C@@H](O)CC(=O)N[C@@H]1COc2c(-c3[nH]c4ncccc4c3-c3cn(C)nc3OC(F)F)c(C(F)F)nn2C1 [EX. 555] | < 10 nM |
| C[C@H](O)CC(=O)N[C@@H]1COc2c(-c3[nH]c4ncccc4c3-c3cn(C)nc3OC(F)F)c(C(F)F)nn2C1 [EX. 556] | < 10 nM |
| Cn1cc(-c2c(-c3c(C(F)F)nn4c3OC[C@@H](NCCO)C4)[nH]c3ncccc23)c(OC(F)F)n1 [EX. 558] | < 10 nM |
| Cn1cc(-c2c(-c3c(C(F)F)nn4c3OC[C@@H](NC(=O)C3CC3)C4)[nH]c3ncccc23)c(OC(F)F)n1 [EX. 559] | < 10 nM |
| C[C@@H](O)C(=O)N[C@@H]1COc2c(-c3[nH]c4ncccc4c3-c3cn(C)nc3OC(F)F)c(C(F)F)nn2C1 [EX. 560] | < 10 nM |
| C[C@H](O)C(=O)N[C@@H]1COc2c(-c3[nH]c4ncccc4c3-c3cn(C)nc3OC(F)F)c(C(F)F)nn2C1 [EX. 561] | < 10 nM |
| Cn1cc(C(=O)N[C@@H]2COc3c(-c4[nH]c5ncccc5c4-c4cn(C)nc4OC(F)F)c(C(F)F)nn3C2)cn1 [EX. 562] | < 10 nM |
| Cn1cc(-c2c(-c3c(C(F)F)nn4c3OC[C@@H](NC(=O)[C@H]3C[C@@](C)(O)C3)C4)[nH]c3ncccc23)c(OC(F)F)n1 [EX. 563] | < 10 nM |
| Cn1cc(-c2c(-c3c(C(F)F)nn4c3OC[C@@H](NC(=O)[C@H]3C[C@@H](O)C3)C4)[nH]c3ncccc23)c(OC(F)F)n1 [EX. 564] | < 10 nM |
| Cn1cc(-c2c(-c3c(C(F)F)nn4c3OC[C@@H](NC(=O)[C@H]3C[C@H](O)C3)C4)[nH]c3ncccc23)c(OC(F)F)n1 [EX. 565] | < 10 nM |

| Compound | IC50 |
| --- | --- |
| Cn1cc(-c2c(-c3c(C(F)F)nn4c3OC[C@@H](NC(=O)OC3CCOC3)C4)[nH]c3ncccc23)c(OC(F)F)n1 (some centres unmarked) [EX. 566] | < 10 nM |
| C[C@H](O)COC(=O)N[C@@H]1COc2c(-c3[nH]c4ncccc4c3-c3cn(C)nc3OC(F)F)c(C(F)F)nn2C1 [EX. 567] | < 10 nM |
| C[C@@H](O)COC(=O)N[C@@H]1COc2c(-c3[nH]c4ncccc4c3-c3cn(C)nc3OC(F)F)c(C(F)F)nn2C1 [EX. 568] | < 10 nM |
| Cn1cc(-c2c(-c3c(C(F)F)nn4c3OC[C@@H](NC(=O)N3CC(O)C3)C4)[nH]c3ncccc23)c(OC(F)F)n1 [EX. 569] | < 10 nM |
| COC(=O)N[C@@H]1COc2c(-c3[nH]c4ncccc4c3-c3cn(C)nc3OC(F)F)c(C(F)F)nn2C1 [EX. 571] | < 10 nM |
| CCc1nn2c(c1-c1[nH]c3ncccc3c1-c1cn(C)nc1OC(F)F)OC[C@@H](NC(=O)OC)C2 [EX. 572] | < 10 nM |
| CCOC(=O)N[C@@H]1COc2c(-c3[nH]c4ncccc4c3-c3cn(C)nc3OC(F)F)c(C(F)F)nn2C1 [EX. 573] | < 10 nM |
| Cn1cc(-c2c(-c3c(C(F)F)nn4c3OC[C@@H](NS(=O)(=O)C3(C)CC3)C4)[nH]c3ncccc23)c(OC(F)F)n1 [EX. 574] | < 10 nM |
| CC(C)OC(=O)N[C@@H]1COc2c(-c3[nH]c4ncccc4c3-c3cn(C)nc3OC(F)F)c(C(F)F)nn2C1 [EX. 575] | < 10 nM |
| CN(C)S(=O)(=O)N[C@@H]1COc2c(-c3[nH]c4ncccc4c3-c3cn(C)nc3OC(F)F)c(C(F)F)nn2C1 [EX. 576] | < 10 nM |
| Cn1cc(-c2c(-c3c(C(F)F)nn4c3OC[C@@H](NS(=O)(=O)CCO)C4)[nH]c3ncccc23)c(OC(F)F)n1 [EX. 577] | < 10 nM |
| COC(=O)N(C)[C@@H]1COc2c(-c3[nH]c4ncccc4c3-c3cn(C)nc3OC(F)F)c(C(F)F)nn2C1 [EX. 578] | < 10 nM |
| Cn1cc(-c2c(-c3c(C(F)F)nn4c3OC[C@@H](N3CCOC3=O)C4)[nH]c3ncccc23)c(OC(F)F)n1 [EX. 579] | < 10 nM |
| Cn1cc(-c2c(-c3c(C(F)F)nn4c3OC[C@@H](N3CCCS3(=O)=O)C4)[nH]c3ncccc23)c(OC(F)F)n1 [EX. 580] | < 10 nM |
| Cn1cc(-c2c(-c3c(C(F)F)nn4c3OC[C@@H](NS(=O)(=O)CCCO)C4)[nH]c3ncccc23)c(OC(F)F)n1 [EX. 581] | < 10 nM |
| CN[C@@H]1COc2c(-c3[nH]c4ncccc4c3-c3cn(C)nc3OC(F)F)c(C(F)F)nn2C1 [EX. 582, (S)-3-(3-(3-(difluoromethoxy)-1-methyl-1H-pyrazol-4-yl)-1H-pyrrolo[2,3-b]pyridin-2-yl)-2-(difluoromethyl)-N-methyl-6,7-dihydro-5H-pyrazolo[5,1-b] [1,3]oxazin-6-amine] | < 10 nM |
| Cn1cc(-c2c(-c3c(C(F)F)nn4c3OC[C@@H](OCC(N)=O)C4)[nH]c3ncccc23)c(OC(F)F)n1 [EX. 583, (S)-2-((3-(3-(3-(difluoromethoxy)-1-methyl-1H-pyrazol-4-yl)-1H-pyrrolo[2,3-b]pyridin-2-yl)-2-(difluoromethyl)-6,7-dihydro-5H-pyrazolo[5,1-b] [1,3]oxazin-6-yl)oxy) acetamide] | < 10 nM |
| Cn1cc(-c2c(-c3c(C(F)F)nn4c3OC[C@@H](NC(=O)OCC(N)=O)C4)[nH]c3ncccc23)c(OC(F)F)n1 [EX. 584] | < 10 nM |
| Cn1cc(-c2c(-c3c(C(F)F)nn4c3OC[C@@H](NC(=O)C3(C(N)=O)CC3)C4)[nH]c3ncccc23)c(OC(F)F)n1 [EX. 585] | < 10 nM |
| Cn1cc(-c2c(-c3c(C(F)F)nn4c3OC[C@@H](NC(=O)CC(C)(C)O)C4)[nH]c3ncccc23)c(OC(F)F)n1 [EX. 586, (S)—N-(3-(3-(3-(difluoromethoxy)-1-methyl-1H-pyrazol-4-yl)-1H-pyrrolo[2,3-b]pyridin-2-yl)-2-(difluoromethyl)-6,7-dihydro-5H-pyrazolo[5,1-b] [1,3]oxazin-6-yl)-3-hydroxy-3-methylbutanamide] | < 10 nM |
| Cn1cc(-c2c(-c3c(C(F)F)nn4c3OC[C@@H](NC(=O)C(C)(C)O)C4)[nH]c3ncccc23)c(OC(F)F)n1 [EX. 587] | < 10 nM |
| Cn1cc(-c2c(-c3c(C(F)F)nn4c3OC[C@@H](NC(=O)C3(F)CC3)C4)[nH]c3ncccc23)c(OC(F)F)n1 [EX. 588] | < 10 nM |
| Cn1cc(-c2c(-c3c(C(F)F)nn4c3OC[C@@H](NC(=O)C3(O)CC3)C4)[nH]c3ncccc23)c(OC(F)F)n1 [EX. 589] | < 10 nM |
| CNC(=O)COC(=O)N[C@@H]1COc2c(-c3[nH]c4ncccc4c3-c3cn(C)nc3OC(F)F)c(C(F)F)nn2C1 [EX. 590] | < 10 nM |
| N#Cc1ncccc1-c1c(-c2c(C(F)F)nn3c2OC[C@@H](NC(=O)C2CC2)C3)[nH]c2ncccc12 [EX. 591] | < 10 nM |
| Cn1cc(-c2c(-c3c(C(F)F)nn4c3OC[C@@H](NC(=O)C3CC3)C4)[nH]c3ncccc23)c(C#N)n1 [EX. 593, (S)—N-(3-(3-(3-cyano-1-methyl-1H-pyrazol-4-yl)-1H-pyrrolo[2,3-b]pyridin-2-yl)-2-(difluoromethyl)-6,7-dihydro-5H-pyrazolo[5,1-b] [1,3]oxazin-6-yl) cyclopropanecarboxamide] | < 10 nM |
